pIC50, pKd, pKi: −log10 of the molar value. Blank lines part the entries; values can stand above or below the compound they belong to.
Experiments:
P2Y purinoceptor 12 [1] = biological target: T1, P2Y purinoceptor 12 (Homo sapiens, UniProt Q9H244); experiment: Binding affinity to P2Y12 (unknown origin) assessed as inhibition constant
P2Y purinoceptor 12 [2] = biological target: T1, P2Y purinoceptor 12; experiment: Displacement of [3H]-2MesADP from recombinant human P2Y12 transfected in HEK cell membrane assessed as inhibition constant; assay type: cell membranes
P2Y purinoceptor 12 [3] = biological target: T1, P2Y purinoceptor 12; experiment: Inhibition of P2Y12 (unknown origin)
P2Y purinoceptor 12 [4] = biological target: T1, P2Y purinoceptor 12; experiment: Displacement of [3H]-2MesADP from human P2Y12 in HEK cell membrane assessed as inhibition constant incubated for 1 hr by scintillation counter method; assay type: cell membranes
P2Y purinoceptor 12 [5] = biological target: T1, P2Y purinoceptor 12; experiment: Displacement of [33P]-2MeS-ADP from recombinant human P2Y12 transfected in HEK cell membrane assessed as inhibition constant incubated for 1 hr by competitive binding assay; assay type: cell membranes
P2Y purinoceptor 12 [6] = biological target: T1, P2Y purinoceptor 12; experiment: Displacement of [3H]PSB-0413 from P2Y12 in human platelets assessed as dissociation constant; assay type: cell-based, Platelet

T1 sequence (Q9H244 whole entry): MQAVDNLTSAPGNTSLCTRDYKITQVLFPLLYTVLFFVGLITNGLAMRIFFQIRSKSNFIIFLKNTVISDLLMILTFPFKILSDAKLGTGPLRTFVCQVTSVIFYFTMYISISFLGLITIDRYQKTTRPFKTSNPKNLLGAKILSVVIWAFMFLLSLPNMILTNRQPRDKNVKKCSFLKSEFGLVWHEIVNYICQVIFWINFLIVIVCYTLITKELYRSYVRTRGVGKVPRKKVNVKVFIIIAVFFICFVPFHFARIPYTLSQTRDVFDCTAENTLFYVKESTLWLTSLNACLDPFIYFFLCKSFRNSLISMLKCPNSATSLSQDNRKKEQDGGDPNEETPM

SMILES: CCCCCOC(=O)N1CCN(C(=O)[C@H](CCC(=O)O)NC(=O)c2cc(N3CCC(COC)CC3)cc(-c3ccccc3)n2)CC1
- pKi (P2Y purinoceptor 12 [1]): 8.46

SMILES: CSc1nc(N)c2ncn([C@@H]3O[C@H](COP(=O)(O)OP(=O)(O)O)[C@@H](O)[C@H]3O)c2n1
- pKi (P2Y purinoceptor 12 [2]): 7.49

SMILES: COC(=O)[C@H](c1ccccc1Cl)N1CCc2sccc2C1 [CLOPIDOGREL]
- pIC50 (P2Y purinoceptor 12 [3]): 5.62

SMILES: CC(=O)Oc1cc2c(s1)CCN(C(C(=O)C1CC1)c1ccccc1F)C2 (stereo not drawn)
- pIC50 (P2Y purinoceptor 12 [3]): 5.74

SMILES: [3H]C([3H])C([3H])([3H])CSc1nc(N)c2ncn([C@@H]3O[C@H](COP(=O)(O)OP(=O)(O)O)[C@@H](O)[C@H]3O)c2n1
- pKd (P2Y purinoceptor 12 [6]): 8.19

Now from value to compound:

- pKi (P2Y purinoceptor 12 [4]): 9.52
SMILES: CCCc1cc2c(N3CCn4c(nnc4C(F)(F)F)C3)nc(OCCF)nc2s1

- pKi (P2Y purinoceptor 12 [5]): 8.05
SMILES: NCc1cc2c(N3CCN(C(=O)c4ccc(-c5ccccc5)cc4)CC3)nc(N3CCNC(=O)C3)nc2s1

- pIC50 (P2Y purinoceptor 12 [3]): 8.00
SMILES: CCCSc1nc(N[C@@H]2C[C@H]2c2ccc(F)c(F)c2)c2nnn([C@@H]3C[C@H](OCCO)[C@@H](O)[C@H]3O)c2n1 [TICAGRELOR]

From ChEMBL document CHEMBL5104116, “Strategies for targeting the P2Y12 receptor in the central nervous system” (Bioorg Med Chem Lett, 2022)
